Test results published in patent US20080280952A1 (priority 2004, published 2008).

Target: T1, human cannabinoid CB2 receptor (Homo sapiens, UniProt P34972)
T1 construct: expressed in transfected cells; host or cells: Saccharomyces cerevisiae strain MMY23 (cassette integrated at the ura3 locus, GPD promoter)
Experiment: Cannabinoid CB2 receptor agonist activity, yeast reporter assay
Format: cell-based
Conditions: for Emax: read-out: efficacy (Emax) at the cloned human cannabinoid CB2 receptor
Protocol: The cannabinoid CB2 receptor agonist activity of the compounds of formula (I) was determined in accordance with the following experimental method.
Yeast (Saccharomyces cerevisiae) cells expressing the human cannabinoid CB2 receptor were generated by integration of an expression cassette into the ura3 chromosomal locus of yeast strain MMY23. This cassette consisted of DNA sequence encoding the human CB2 receptor flanked by the yeast GPD promoter to the 5′ end of CB2 and a yeast transcriptional terminator sequence to the 3′ end of CB2. MMY23 expresses a yeast/mammalian chimeric G-protein alpha subunit in which the C-terminal 5 amino acids of Gpa1 are replaced with the C-terminal 5 amino acids of human Gαi3 (as described in Brown et al. (2000), Yeast 16:11-22).
Agonists were prepared as 10 mM stocks in DMSO. […] Agonist solutions in DMSO (1% final assay volume) were transferred into black, clear bottom, microtitre plates from NUNC (96- or 384-well). Cells were suspended at a density of 0.2 OD600/ml in SC media lacking histidine, uracil, tryptophan, adenine and leucine and supplemented with 10 mM 3-aminotriazole, 0.1M sodium phosphate pH 7.0, and […] fluorescein di-β-D-glucopyranoside (FDGlu). […] Fluorescence was plotted against compound concentration and iteratively curve fitted using a four parameter fit to generate a concentration effect value. Efficacy (Emax) was calculated from the equation
Equieffective molar ratio (EMR) values were calculated from the equation

T1 sequence (P34972 whole entry): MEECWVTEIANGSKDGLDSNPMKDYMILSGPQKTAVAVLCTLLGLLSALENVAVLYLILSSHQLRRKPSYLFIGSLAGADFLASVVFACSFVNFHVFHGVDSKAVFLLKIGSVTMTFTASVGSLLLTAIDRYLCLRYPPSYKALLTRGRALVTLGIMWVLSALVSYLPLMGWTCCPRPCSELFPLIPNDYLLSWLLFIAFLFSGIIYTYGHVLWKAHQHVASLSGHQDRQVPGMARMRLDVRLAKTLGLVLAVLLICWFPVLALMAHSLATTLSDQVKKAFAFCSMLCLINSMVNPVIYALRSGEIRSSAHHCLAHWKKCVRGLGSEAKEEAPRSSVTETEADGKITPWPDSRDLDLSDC

SMILES	EC50 [nM]	Emax [%]
O=C(NCC1CCOCC1)c1cnc(Nc2cccc(F)c2)cc1C1CCCC1 [Example 15, 4-Cyclopentyl-6-(3-fluoro-phenylamino)-N-(tetrahydro-pyran-4-ylmethyl)-nicotinamide]	300 to 1000	> 50
Cc1cc(Nc2cc(C3CC3)c(C(=O)NCC3CCOCC3)cn2)ccc1Br [Example 110, 6-(4-Bromo-3-methyl-phenylamino)-4-cyclopropyl-N-(tetrahydro-pyran-4-ylmethyl)-nicotinamide]	300 to 1000	> 50
O=C(NCC1CCOCC1)c1cnc(Nc2ccc(Br)c(F)c2)cc1C1CC1 [Example 97, 6-(4-Bromo-3-fluoro-phenylamino)-4-cyclopropyl-N-(tetrahydro-pyran-4-ylmethyl)-nicotinamide]	300 to 1000	> 50
Cc1cc(C#N)ccc1Nc1cc(C2CC2)c(C(=O)NCC2CCOCC2)cn1 [Example 106, 6-(4-Cyano-2-methyl-phenylamino)-4-cyclopropyl-N-(tetrahydro-pyran-4-ylmethyl)-nicotinamide]	300 to 1000	> 50
O=C(NCC1CCOCC1)c1cnc(Nc2cc(C(F)(F)F)ccc2Br)cc1C1CC1 [Example 104, 6-(2-Bromo-5-trifluoromethyl-phenylamino)-4-cyclopropyl-N-(tetrahydro-pyran-4-ylmethyl)-nicotinamide]	300 to 1000	> 50
O=C(NCC1CCOCC1)c1cnc(Nc2cc(F)ccc2Cl)cc1C1CC1 [Example 108, 6-(2-Chloro-5-fluoro-phenylamino)-4-cyclopropyl-N-(tetrahydro-pyran-4-ylmethyl)-nicotinamide]	300 to 1000	> 50
Cc1ccc(Nc2cc(C3CC3)c(C(=O)NCC3CCOCC3)cn2)cc1F [Example 111, 4-Cyclopropyl-6-(3-fluoro-4-methyl-phenylamino)-N-(tetrahydro-pyran-4-ylmethyl)-nicotinamide]	300 to 1000	> 50
Cc1cccc(Nc2cc(C3CC3)c(C(=O)NCC3CCOCC3)cn2)c1C#N [Example 109, 6-(2-Cyano-3-methyl-phenylamino)-4-cyclopropyl-N-(tetrahydro-pyran-4-ylmethyl)-nicotinamide]	300 to 1000	> 50
O=C(NCC1CCC1)c1cnc(Nc2ccc(F)c(C(F)(F)F)c2)cc1C1CC1 [Example 123, N-Cyclobutylmethyl-4-cyclopropyl-6-(4-fluoro-3-trifluoromethyl-phenylamino)-nicotinamide]	300 to 1000	> 50
O=C(NCC1CCOCC1)c1ccc(Nc2cccc(Br)c2)nc1C1CC1 [Example 126, 6-(3-Bromo-phenylamino)-2-cyclopropyl-N-(tetrahydro-pyran-4-ylmethyl)-nicotinamide]	300 to 1000	> 50
COc1cccc(Nc2cc(C3CCCC3)c(C(=O)NCC3CCOCC3)cn2)c1 [Example 26, 4-Cyclopentyl-6-(3-methoxy-phenylamino)-N-(tetrahydro-pyran-4-ylmethyl)-nicotinamide]	300 to 1000	> 50
O=C(NCC1CCCC1)c1cnc(Nc2ccc(F)cc2F)cc1C1CC1 [Example 99, N-Cyclopentylmethyl-4-cyclopropyl-6-(2,4-difluoro-phenylamino)-nicotinamide]	300 to 1000	> 50
O=C(NCC1CCOCC1)c1cnc(Nc2ccc(F)c(Cl)c2)cc1C1CC1 [Example 21, 6-(3-Chloro-4-fluoro-phenylamino)-4-cyclopropyl-N-(tetrahydro-pyran-4-ylmethyl)-nicotinamide]	300 to 1000	> 50
Cc1ccc(Nc2cc(C3CC3)c(C(=O)NCC3CCOCC3)cn2)cc1Cl [Example 112, 6-(3-Chloro-4-methyl-phenylamino)-4-cyclopropyl-N-(tetrahydro-pyran-4-ylmethyl)-nicotinamide]	300 to 1000	> 50
O=C(NCC1CCOCC1)c1cnc(Nc2ccc(F)c(F)c2)cc1C1CC1 [Example 113, 4-Cyclopropyl-6-(3,4-difluoro-phenylamino)-N-(tetrahydro-pyran-4-ylmethyl)-nicotinamide]	300 to 1000	> 50
N#Cc1ccc(Nc2cc(C3CC3)c(C(=O)NCC3CCOCC3)cn2)c(F)c1 [Example 121, 6-(4-Cyano-2-fluoro-phenylamino)-4-cyclopropyl-N-(tetrahydro-pyran-4-ylmethyl)-nicotinamide]	300 to 1000	> 50
COc1cccc(Nc2cc(C3CC3)c(C(=O)NCC3CCC3)cn2)c1 [Example 115, N-Cyclobutylmethyl-4-cyclopropyl-6-(3-methoxy-phenylamino)-nicotinamide]	300 to 1000	> 50

SMILES	EC50 [nM]	Emax [%]
Cc1ccc(C(F)(F)F)cc1Nc1cc(C2CC2)c(C(=O)NCC2CCOCC2)cn1 [Example 114, 4-Cyclopropyl-6-(2-methyl-5-trifluoromethyl-phenylamino)-N-(tetrahydro-pyran-4-ylmethyl)-nicotinamide]	300 to 1000	> 50
O=C(NCC1CCOCC1)c1cnc(Nc2ccc(F)cc2Cl)cc1C1CCCC1 [Example 22, 6-(2-Chloro-4-fluoro-phenylamino)-4-cyclopentyl-N-(tetrahydro-pyran-4-ylmethyl)-nicotinamide]	300 to 1000	> 50
Cc1cccc(Nc2cc(C3CCCC3)c(C(=O)NCC3CCOCC3)cn2)c1 [Example 17, Methanesulphonic acid,compound with 4-cyclopentyl-N-(tetrahydro-pyran-4-ylmethyl)-6-m-tolylamino-nicotinamide]	300 to 1000	> 50
O=C(NCC1CCOCC1)c1cnc(Nc2cccc(C(F)(F)F)c2F)cc1C1CC1 [Example 20, 4-Cyclopropyl-6-(2-fluoro-3-trifluoromethyl-phenylamino)-N-(tetrahydro-pyran-4-ylmethyl)-nicotinamide]	300 to 1000	> 50
O=C(NCC1CCOCC1)c1cnc(Nc2ccc(Br)cc2F)cc1C1CC1 [Example 94, 6-(4-Bromo-2-fluoro-phenylamino)-4-cyclopropyl-N-(tetrahydro-pyran-4-ylmethyl)-nicotinamide]	300 to 1000	> 50
N#Cc1cccc(Nc2cc(C3CCCC3)c(C(=O)NCC3CCOCC3)cn2)c1 [Example 16, 6-(3-Cyano-phenylamino)-4-cyclopentyl-N-(tetrahydro-pyran-4-ylmethyl)-nicotinamide]	300 to 1000	> 50
Cc1cc(Cl)ccc1Nc1cc(C2CC2)c(C(=O)NCC2CCOCC2)cn1 [Example 95, 6-(4-Chloro-2-methyl-phenylamino)-4-cyclopropyl-N-(tetrahydro-pyran-4-ylmethyl)-nicotinamide]	300 to 1000	> 50
O=C(NCC1CCOCC1)c1ccc(Nc2cccc(C(F)(F)F)c2)nc1C1CC1 [Example 125, 2-Cyclopropyl-N-(tetrahydro-pyran-4-ylmethyl)-6-(3-trifluoromethyl-phenylamino)-nicotinamide]	300 to 1000	> 50
Cc1c(Nc2cc(C3CC3)c(C(=O)NCC3CCOCC3)cn2)cccc1C(F)(F)F [Example 107, 4-Cyclopropyl-6-(2-methyl-3-trifluoromethyl-phenylamino)-N-(tetrahydro-pyran-4-ylmethyl)-nicotinamide]	300 to 1000	> 50
O=C(NCC1CCOCC1)c1cnc(Nc2cc(Cl)ccc2F)cc1C1CC1 [Example 101, 6-(5-Chloro-2-fluoro-phenylamino)-4-cyclopropyl-N-(tetrahydro-pyran-4-ylmethyl)-nicotinamide]	300 to 1000	> 50
O=C(NCC1CCOCC1)c1cnc(Nc2ccc(OC(F)(F)F)cc2Br)cc1C1CC1 [Example 96, 6-(2-Bromo-4-trifluoromethoxy-phenylamino)-4-cyclopropyl-N-(tetrahydro-pyran-4-ylmethyl)-nicotinamide]	300 to 1000	> 50
Cc1cc(Cl)ccc1Nc1cc(C2CCCC2)c(C(=O)NCC2CCOCC2)cn1 [Example 23, 6-(4-Chloro-2-methyl-phenylamino)-4-cyclopentyl-N-(tetrahydro-pyran-4-ylmethyl)-nicotinamide]	300 to 1000	> 50
O=C(NCC1CCOCC1)c1ccc(Nc2cccc(OC(F)(F)F)c2)nc1C1CC1 [Example 127, 2-Cyclopropyl-N-(tetrahydro-pyran-4-ylmethyl)-6-(3-trifluoromethoxy-phenylamino)-nicotinamide]	300 to 1000	> 50
O=C(NCC1CCCC1)c1cnc(Nc2ccc(C(F)(F)F)c(Cl)c2)cc1C1CC1 [Example 120, 6-(3-Chloro-4-trifluoromethyl-phenylamino)-N-cyclopentylmethyl-4-cyclopropyl-nicotinamide]	300 to 1000	> 50
O=C(NCC1CCOCC1)c1cnc(Nc2ccc(Br)c(Cl)c2)cc1C1CC1 [Example 91, 6-(4-Bromo-3-chloro-phenylamino)-4-cyclopropyl-N-(tetrahydro-pyran-4-ylmethyl)-nicotinamide]	300 to 1000	> 50
O=C(NCC1CCCC1)c1cnc(Nc2cccc(Cl)c2Cl)cc1C1CC1 [Example 119, N-Cyclopentylmethyl-4-cyclopropyl-6-(2,3-dichloro-phenylamino)-nicotinamide]	300 to 1000	> 50
